# Reference: ChEMBL document CHEMBL4680270, “Synthesis and biological evaluation of novel pyrazoline derivatives containing indole skeleton as anti-cancer agents targeting topoisomerase II” (Eur J Med Chem, 2020)
# The source made the active and inactive calls. The rule behind the calls is not given here.
# Key:
# [1] = molecular target: T1, DNA topoisomerase 1 (Homo sapiens) (UniProt P11387); experiment: Inhibition of human topoisomerase 1 assessed as decrease in relaxation of supercoiled pBR322 plasmid DNA at 100 uM using pBR322 plasmid DNA as substrate incubated for 30 mins by agarose gel electrophoresis
# T1 sequence (whole entry): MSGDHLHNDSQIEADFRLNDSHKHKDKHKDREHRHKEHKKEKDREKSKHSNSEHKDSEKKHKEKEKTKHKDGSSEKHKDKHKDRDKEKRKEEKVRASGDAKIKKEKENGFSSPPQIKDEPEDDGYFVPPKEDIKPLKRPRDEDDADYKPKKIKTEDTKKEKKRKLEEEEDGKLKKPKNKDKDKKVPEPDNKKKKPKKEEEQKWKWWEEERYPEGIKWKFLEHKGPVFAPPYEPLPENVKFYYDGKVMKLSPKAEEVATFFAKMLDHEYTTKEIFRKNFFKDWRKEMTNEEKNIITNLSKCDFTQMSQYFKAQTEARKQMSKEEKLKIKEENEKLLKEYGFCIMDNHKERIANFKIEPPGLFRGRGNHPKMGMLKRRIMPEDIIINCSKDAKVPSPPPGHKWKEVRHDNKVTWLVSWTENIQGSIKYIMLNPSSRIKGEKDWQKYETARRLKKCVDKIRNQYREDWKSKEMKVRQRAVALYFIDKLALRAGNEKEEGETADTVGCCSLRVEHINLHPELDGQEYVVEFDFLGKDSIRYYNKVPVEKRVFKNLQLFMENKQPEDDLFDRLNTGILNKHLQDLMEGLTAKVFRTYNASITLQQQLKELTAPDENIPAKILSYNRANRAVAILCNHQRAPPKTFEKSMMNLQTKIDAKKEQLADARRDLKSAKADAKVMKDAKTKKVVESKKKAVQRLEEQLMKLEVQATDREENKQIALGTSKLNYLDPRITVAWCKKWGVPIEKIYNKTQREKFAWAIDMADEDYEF
# [2] = test system: MGC-803; experiment: Induction of cell cycle arrest in human MGC-803 cells assessed as G0/G1 phase at 10 uM incubated for 48 hrs by PI staining based flow cytometry analysis (reference value: 47.6 %); assay type: functional
# [3] = test system: MGC-803; experiment: Induction of apoptosis in human MGC-803 cells assessed as late apoptotic cells at 10 uM incubated for 48 hrs by annexin V-FITC and PI staining based flow cytometry analysis (reference value: 2.96 %); assay type: functional
# [4] = species: Homo sapiens; experiment: Inhibition of human topoisomerase 2 assessed as EtBr intercalation into plasmid DNA by converting relaxed DNA into supercoiled DNA at 100 to 300 uM incubated for 30 mins by agarose gel electrophoresis method; details: dose 100-300 µM
# [5] = molecular target: DNA topoisomerase 2-alpha (Homo sapiens) (UniProt P11388); experiment: Poison activity at human topoisomerase 2alpha assessed as DNA cleavage by measuring linear DNA formation at 100 to 300 uM using supercoiled pBR322 DNA as substrate incubated for 30 mins by agarose gel electrophoresis method; details: dose 100-300 µM
# [6] = test system: MGC-803; experiment: Induction of cell cycle arrest in human MGC-803 cells assessed as S phase at 10 uM incubated for 48 hrs by PI staining based flow cytometry analysis (reference value: 43.6 %); assay type: functional
# [7] = test system: MGC-803; experiment: Induction of apoptosis in human MGC-803 cells assessed as early apoptotic cells at 10 uM incubated for 48 hrs by annexin V-FITC and PI staining based flow cytometry analysis (reference value: 2.54 %); assay type: functional
# [8] = test system: MGC-803; experiment: Inhibition of topoisomerase 2 purified from human MGC-803 cells assessed as decrease in relaxation of supercoiled pBR322 plasmid DNA at 100 uM using pBR322 plasmid DNA as substrate incubated for 30 mins by agarose gel electrophoresis; assay type: cell-free
# [9] = test system: MGC-803; experiment: Antiproliferative activity against human MGC-803 cells assessed as reduction in cell growth incubated for 48 hrs by MTT assay; assay type: functional, cell-based; details: MGC-803, 48 h
# [10] = test system: MGC-803; experiment: Induction of apoptosis in human MGC-803 cells assessed as early apoptotic cells at 20 uM incubated for 48 hrs by annexin V-FITC and PI staining based flow cytometry analysis (reference value: 2.54 %); assay type: functional
# [11] = test system: MGC-803; experiment: Induction of cell cycle arrest in human MGC-803 cells assessed as G2/M phase at 10 uM incubated for 48 hrs by PI staining based flow cytometry analysis (reference value: 8.8 %); assay type: functional
# [12] = test system: MGC-803; experiment: Induction of apoptosis in human MGC-803 cells assessed as viable cells at 20 uM incubated for 48 hrs by annexin V-FITC and PI staining based flow cytometry analysis (reference value: 94.47 %); assay type: functional; details: read-out: Activity
# [13] = test system: MGC-803; experiment: Induction of apoptosis in human MGC-803 cells assessed as necrotic cells at 20 uM incubated for 48 hrs by annexin V-FITC and PI staining based flow cytometry analysis (reference value: 0.03 %); assay type: functional
# [14] = test system: MGC-803; experiment: Inhibition of topoisomerase 2 purified from human MGC-803 cells assessed as decrease in relaxation of supercoiled pBR322 plasmid DNA at 20 uM using pBR322 plasmid DNA as substrate incubated for 30 mins by agarose gel electrophoresis; assay type: cell-free
# [15] = test system: MGC-803; experiment: Induction of apoptosis in human MGC-803 cells assessed as viable cells at 10 uM incubated for 48 hrs by annexin V-FITC and PI staining based flow cytometry analysis (reference value: 94.47 %); assay type: functional; details: read-out: Activity
# [16] = test system: HeLa; experiment: Antiproliferative activity against human HeLa cells assessed as reduction in cell growth incubated for 48 hrs by MTT assay; assay type: functional, cell-based
# [17] = test system: MGC-803; experiment: Induction of apoptosis in human MGC-803 cells assessed as necrotic cells at 10 uM incubated for 48 hrs by annexin V-FITC and PI staining based flow cytometry analysis (reference value: 0.03 %); assay type: functional
# [18] = test system: BEL-7404 tumor cell line; experiment: Antiproliferative activity against human Bel-7404 tumor cell line assessed as reduction in cell growth incubated for 48 hrs by MTT assay; assay type: functional, cell-based; details: BEL-7404, 48 h
# [19] = Drug uptake in human MGC-803 cells at 10 uM incubated for 8 hrs by laser scanning confocal microscope; assay type: ADME, cell-based; details: mgc-803, 8 h
# [20] = Cytotoxicity against […] tumor cell line assessed as reduction in cell viability incubated for 48 hrs by MTT assay; details: L929, 48 h
# [21] = test system: MCF7; experiment: Antiproliferative activity against human MCF7 cells assessed as reduction in cell growth incubated for 48 hrs by MTT assay; assay type: functional, cell-based; details: MCF7, 48 h
# [22] = test system: MGC-803; experiment: Induction of apoptosis in human MGC-803 cells assessed as late apoptotic cells at 20 uM incubated for 48 hrs by annexin V-FITC and PI staining based flow cytometry analysis (reference value: 2.96 %); assay type: functional
# DNA topoisomerase 2-alpha (Homo sapiens), sequence (P11388 whole entry): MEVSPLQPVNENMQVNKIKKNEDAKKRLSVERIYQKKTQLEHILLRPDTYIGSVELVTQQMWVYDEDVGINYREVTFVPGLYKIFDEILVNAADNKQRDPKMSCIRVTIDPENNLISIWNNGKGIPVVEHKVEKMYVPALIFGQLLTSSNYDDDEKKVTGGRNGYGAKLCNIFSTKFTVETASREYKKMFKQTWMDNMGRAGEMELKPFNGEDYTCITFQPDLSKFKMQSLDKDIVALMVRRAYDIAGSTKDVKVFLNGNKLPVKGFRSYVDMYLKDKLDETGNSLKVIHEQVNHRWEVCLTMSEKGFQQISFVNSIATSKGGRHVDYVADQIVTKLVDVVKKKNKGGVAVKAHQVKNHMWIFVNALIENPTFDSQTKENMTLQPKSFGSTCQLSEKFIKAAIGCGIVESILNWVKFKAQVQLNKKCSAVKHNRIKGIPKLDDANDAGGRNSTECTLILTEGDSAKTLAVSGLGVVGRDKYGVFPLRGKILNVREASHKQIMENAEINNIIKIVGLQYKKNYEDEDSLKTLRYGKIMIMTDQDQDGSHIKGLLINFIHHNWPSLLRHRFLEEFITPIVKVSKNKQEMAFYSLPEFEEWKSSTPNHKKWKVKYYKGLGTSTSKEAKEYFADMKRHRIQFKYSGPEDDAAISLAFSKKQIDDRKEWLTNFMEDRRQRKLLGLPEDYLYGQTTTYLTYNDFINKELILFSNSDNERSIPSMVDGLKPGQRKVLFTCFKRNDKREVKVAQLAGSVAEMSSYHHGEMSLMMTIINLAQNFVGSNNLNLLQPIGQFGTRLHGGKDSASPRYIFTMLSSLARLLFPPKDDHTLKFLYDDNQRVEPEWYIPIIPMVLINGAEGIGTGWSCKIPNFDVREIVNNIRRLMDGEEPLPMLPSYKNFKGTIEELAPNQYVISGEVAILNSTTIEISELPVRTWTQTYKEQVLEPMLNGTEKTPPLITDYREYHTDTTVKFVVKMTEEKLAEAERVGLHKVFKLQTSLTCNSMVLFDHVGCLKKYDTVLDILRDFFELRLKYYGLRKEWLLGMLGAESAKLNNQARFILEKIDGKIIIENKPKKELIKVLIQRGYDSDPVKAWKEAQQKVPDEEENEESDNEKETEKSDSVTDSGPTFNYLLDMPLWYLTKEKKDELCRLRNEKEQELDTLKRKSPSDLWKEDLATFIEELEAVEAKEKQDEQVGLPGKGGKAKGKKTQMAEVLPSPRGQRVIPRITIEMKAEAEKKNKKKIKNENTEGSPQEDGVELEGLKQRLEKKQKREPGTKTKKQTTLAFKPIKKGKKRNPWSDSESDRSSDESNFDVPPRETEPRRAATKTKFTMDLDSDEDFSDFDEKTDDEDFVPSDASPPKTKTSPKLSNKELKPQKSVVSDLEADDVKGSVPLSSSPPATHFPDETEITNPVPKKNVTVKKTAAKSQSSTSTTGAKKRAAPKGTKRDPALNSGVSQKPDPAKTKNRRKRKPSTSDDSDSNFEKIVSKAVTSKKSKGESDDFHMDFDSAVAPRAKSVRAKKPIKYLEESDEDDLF
SMILES,inhibition [1],inhibition [8],IC50 [9],inhibition [14],IC50 [16],IC50 [18],IC50 [20],IC50 [21],further results
Clc1cc(Cl)c2c(c1)C1=NN(c3ccccc3)C(c3c[nH]c4ccccc34)C1CS2 (stereo unspecified),inactive,Active,20.5 µM,Active,25 µM,21 µM,105 µM,25.6 µM,Activity [2]: 49.7%; Activity [3]: 4.99%; inhibition [4]: inactive; inhibition [5]: inactive; Activity [6]: 25.4%; Activity [7]: 4.92%; Activity [10]: 12.17%; Activity [11]: 24.9%; viability at 20 µM [12]: 49.2%; Activity [13]: 2.54%; viability at 10 µM [15]: 89.6%; Activity [17]: 0.5%; Drug uptake [19]: Active; Activity [22]: 36.06%
Cc1cc(C)c2c(c1)C1=NN(c3ccccc3)C(c3c[nH]c4ccccc34)C1CS2 (stereo unspecified),inactive,,26.5 µM,,29.2 µM,23.7 µM,134 µM,27 µM,
Cc1cccc2c1SCC1C2=NN(c2ccccc2)C1c1c[nH]c2ccccc12 (stereo unspecified),inactive,Active,28 µM,,37 µM,57.3 µM,189 µM,38 µM,
Cc1ccc(C)c2c1SCC1C2=NN(c2ccccc2)C1c1c[nH]c2ccccc12 (stereo unspecified),inactive,Active,35.6 µM,Active,39.7 µM,37.5 µM,183 µM,37.7 µM,
Cc1cc2c(cc1F)C1=NN(c3ccccc3)C(c3c[nH]c4ccccc34)C1CS2 (stereo unspecified),inactive,Active,27.8 µM,,41.1 µM,61.9 µM,150 µM,47.8 µM,
Clc1ccc2c(c1)C1=NN(c3ccccc3)C(c3c[nH]c4ccccc34)C1CS2 (stereo unspecified),inactive,Active,15.4 µM,Active,38.2 µM,42.9 µM,160 µM,26.1 µM,Activity [2]: 38.1%; Activity [3]: 17.02%; Activity [6]: 25.3%; Activity [7]: 12.32%; Activity [10]: 8.17%; Activity [11]: 36.6%; viability at 20 µM [12]: 36.9%; Activity [13]: 2.18%; viability at 10 µM [15]: 69.9%; Activity [17]: 0.73%; Drug uptake [19]: Active; Activity [22]: 52.74%
COc1cc([C@@H]2c3cc4c(cc3[C@@H](O[C@@H]3O[C@@H]5CO[C@@H](C)O[C@H]5[C@H](O)[C@H]3O)[C@H]3COC(=O)[C@H]23)OCO4)cc(OC)c1O [ETOPOSIDE],,,11.2 µM,,5.35 µM,7.76 µM,80.4 µM,1.45 µM,
Cc1ccc2c(c1)C1=NN(c3ccccc3)C(c3c[nH]c4ccccc34)C1CS2 (stereo unspecified),inactive,Active,21.9 µM,Active,36.4 µM,> 120 µM,158 µM,68 µM,
Cn1cc(C2C3CSc4ccc(Cl)cc4C3=NN2c2ccccc2)c2ccccc21 (stereo unspecified),inactive,,33.1 µM,,48.7 µM,36.2 µM,262 µM,51.1 µM,
COc1ccc2c(c1)C1=NN(c3ccccc3)C(c3c[nH]c4ccccc34)C1CS2 (stereo unspecified),inactive,Active,36.4 µM,,> 120 µM,> 120 µM,120 µM,> 120 µM,
Clc1ccc2c(c1)C1=NN(c3ccccc3)C(c3c[nH]c4ccc(Br)cc34)C1CS2 (stereo unspecified),inactive,,29.3 µM,,35.1 µM,32.1 µM,154 µM,37.1 µM,
Fc1ccc2c(c1)C1=NN(c3ccccc3)C(c3c[nH]c4ccccc34)C1CS2 (stereo unspecified),inactive,Active,39.3 µM,Active,50 µM,50.2 µM,175 µM,37.8 µM,
Fc1cccc2c1SCC1C2=NN(c2ccccc2)C1c1c[nH]c2ccccc12 (stereo unspecified),inactive,Active,31.1 µM,Active,31.6 µM,36.2 µM,158 µM,35.7 µM,
Clc1cc2c(cc1Cl)C1=NN(c3ccccc3)C(c3c[nH]c4ccccc34)C1CS2 (stereo unspecified),inactive,Active,27.1 µM,Active,27.4 µM,> 120 µM,164 µM,72.8 µM,
